Converted amounts (≈) assume the structure as drawn.
Experiment: Phase solubility study (shake-flask) in buffers with 2-HP-β-CD
Conditions: for order of the solubility: compared with reported FCZ and L-173
Protocol: An excess amount of the substance was placed in the glass screw-capped vials with the solvent. The vials were stirred in an air thermostat for a certain period of time (a period of 3 days was estimated to be enough for reaching the equilibrium between the solid and the solvent). Then, the saturated solutions were kept in a thermostat in mild conditions no less than 12 h and thereafter centrifuged at a fixed temperature (Biofuge pico, Thermo Electron LED GmbH, Langenselbold, Germany) for 10 min at 12,000 rpm. […] The experimental results were reported as an average of at least three replicated experiments. Temperature uncertainty was ±0.1 K. The sensitivity of UV spectroscopic determinations was characterized by the values of the limit of detection (LOD)/limit of quantification (LOQ).

O=C1S/C(=C\c2ccc(Cl)cc2)C(=O)N1CC(O)CN1CCN(CC(O)(Cn2cncn2)c2ccc(F)cc2F)CC1 (centres unmarked) [RS-186, (Z)-5-(4-chlorobenzylidene)-3-(3-(4-(2-(2,4-difluorophenyl)-2-hydroxy-3-(1H-1,2,4-triazol-1-yl)propyl)piperazin-1-yl)-2-hydroxypropyl)thiazolidine-2,4-dione]
Experimental solubility (S2) (pH 2.0, 303.15 K, 2-HP-β-CD 0.03 M, S2 10^3/M): 8.37 ± 0.18 10^3/M | Experimental solubility (S2) (pH 2.0, 303.15 K, 2-HP-β-CD 0.04 M, S2 10^3/M): 11.20 ± 0.19 10^3/M | Experimental solubility (S2) (pH 2.0, 303.15 K, 2-HP-β-CD 0.05 M, S2 10^3/M): 14.20 ± 0.22 10^3/M | Experimental solubility (S2) (pH 2.0, 310.15 K, 2-HP-β-CD 0 M, S2 10^3/M): 0.61 ± 0.02 10^3/M | Experimental solubility (S2) (pH 2.0, 310.15 K, 2-HP-β-CD 0.01 M, S2 10^3/M): 3.64 ± 0.04 10^3/M | Experimental solubility (S2) (pH 2.0, 310.15 K, 2-HP-β-CD 0.03 M, S2 10^3/M): 8.68 ± 0.19 10^3/M | Experimental solubility (S2) (pH 2.0, 310.15 K, 2-HP-β-CD 0.04 M, S2 10^3/M): 11.79 ± 0.33 10^3/M | Experimental solubility (S2) (pH 2.0, 310.15 K, 2-HP-β-CD 0.05 M, S2 10^3/M): 14.88 ± 0.24 10^3/M | Experimental solubility (S2) (pH 2.0, 313.15 K, 2-HP-β-CD 0 M, S2 10^3/M): 0.69 ± 0.02 10^3/M | Experimental solubility (S2) (pH 2.0, 313.15 K, 2-HP-β-CD 0.01 M, S2 10^3/M): 3.97 ± 0.03 10^3/M | Experimental solubility (S2) (pH 2.0, 313.15 K, 2-HP-β-CD 0.03 M, S2 10^3/M): 9.30 ± 0.31 10^3/M | Experimental solubility (S2) (pH 2.0, 313.15 K, 2-HP-β-CD 0.04 M, S2 10^3/M): 12.90 ± 0.33 10^3/M | Experimental solubility (S2) (pH 2.0, 313.15 K, 2-HP-β-CD 0.05 M, S2 10^3/M): 15.90 ± 0.40 10^3/M | order of the solubility (pH 2.0): (FCZ) > (RS-186 ≥ R-98) > (L-173) | solubility in pure buffer solution (pH 2.0): 500 µM (≈ 310 µg/mL) | solubility of RS-186 greater than R-98 (pH 7.4): 1.5 fold | Experimental solubility (S2) (pH 7.4, 298.15 K, 2-HP-β-CD 0 M, S2 10^4/M): 0.27 ± 0.01 10^4/M | Experimental solubility (S2) (pH 7.4, 298.15 K, 2-HP-β-CD 0.01 M, S2 10^4/M): 3.15 ± 0.02 10^4/M | Experimental solubility (S2) (pH 7.4, 298.15 K, 2-HP-β-CD 0.03 M, S2 10^4/M): 20.00 ± 0.32 10^4/M | Experimental solubility (S2) (pH 7.4, 298.15 K, 2-HP-β-CD 0.04 M, S2 10^4/M): 30.70 ± 0.51 10^4/M | Experimental solubility (S2) (pH 7.4, 298.15 K, 2-HP-β-CD 0.05 M, S2 10^4/M): 40.20 ± 0.58 10^4/M | Experimental solubility (S2) (pH 7.4, 303.15 K, 2-HP-β-CD 0 M, S2 10^4/M): 0.30 ± 0.01 10^4/M | Experimental solubility (S2) (pH 7.4, 303.15 K, 2-HP-β-CD 0.01 M, S2 10^4/M): 2.74 ± 0.03 10^4/M | Experimental solubility (S2) (pH 7.4, 303.15 K, 2-HP-β-CD 0.03 M, S2 10^4/M): 10.60 ± 0.33 10^4/M | Experimental solubility (S2) (pH 7.4, 303.15 K, 2-HP-β-CD 0.04 M, S2 10^4/M): 15.60 ± 0.41 10^4/M | Experimental solubility (S2) (pH 7.4, 303.15 K, 2-HP-β-CD 0.05 M, S2 10^4/M): 20.10 ± 0.21 10^4/M | Experimental solubility (S2) (pH 7.4, 310.15 K, 2-HP-β-CD 0 M, S2 10^4/M): 0.35 ± 0.01 10^4/M | Experimental solubility (S2) (pH 7.4, 310.15 K, 2-HP-β-CD 0.01 M, S2 10^4/M): 1.93 ± 0.03 10^4/M | Experimental solubility (S2) (pH 7.4, 310.15 K, 2-HP-β-CD 0.03 M, S2 10^4/M): 5.01 ± 0.05 10^4/M | Experimental solubility (S2) (pH 7.4, 310.15 K, 2-HP-β-CD 0.04 M, S2 10^4/M): 6.97 ± 0.08 10^4/M | Experimental solubility (S2) (pH 7.4, 310.15 K, 2-HP-β-CD 0.05 M, S2 10^4/M): 8.58 ± 0.08 10^4/M | Experimental solubility (S2) (pH 7.4, 313.15 K, 2-HP-β-CD 0 M, S2 10^4/M): 0.37 ± 0.01 10^4/M | Experimental solubility (S2) (pH 7.4, 313.15 K, 2-HP-β-CD 0.01 M, S2 10^4/M): 1.37 ± 0.06 10^4/M | Experimental solubility (S2) (pH 7.4, 313.15 K, 2-HP-β-CD 0.03 M, S2 10^4/M): 2.50 ± 0.03 10^4/M | Experimental solubility (S2) (pH 7.4, 313.15 K, 2-HP-β-CD 0.04 M, S2 10^4/M): 3.20 ± 0.05 10^4/M | Experimental solubility (S2) (pH 7.4, 313.15 K, 2-HP-β-CD 0.05 M, S2 10^4/M): 3.65 ± 0.05 10^4/M | order of the solubility (pH 7.4): (FCZ) > (R-98 ≥ RS-186) >> (L-173) | solubility in pure buffer solution (pH 7.4): 27 µM (≈ 16.7 µg/mL)

— publication PMC9025555, “Chiral Recognition R- and RS- of New Antifungal: Complexation/Solubilization/Dissolution Thermodynamics and Permeability Assay” (Pharmaceutics, 2022)
